Assays:
tolC^− strains = assay: growth and viability of tolC- strains on antibiotic; type: cell-based, E. coli
Description: Electrocompetent cells of strain V674E were made by standard methods (35); however, the transformation efficiency of this strain is low (10^6–10^7) due to the tolC^− mutation. Using standard methods, both the pACλcI32 and the pBRαLN plasmids or appropriate derivatives were transformed into the strain. Transformants were grown on LB with 100 μg/mL ampicillin and 6 μg/mL chloramphenicol. […] In addition MacConkey plates can't be used because MacConkey media is toxic to strains bearing a tolC^− mutation.

[1] = system: λcI-FKBP12 and αNTD-DHFR fusion proteins (lacZ reporter gene in E. coli strain V674E); assay: liquid lacZ (ONPG) β-galactosidase assay, bacterial three-hybrid system; type: cell-based; conditions: for effect of unlinked ligand on the levels of transcription in the three-hybrid system: control without Mtx-SLF (FIG. 4)
Description: The levels of small-molecule induced transcriptional activation were quantified using liquid lacZ assays. The strains here correspond exactly to those in FIG. 2 and are used in liquid ONPG assays where the levels of transcriptional activation can be quantitated based on the amount of reporter protein, b-galactosidase, which is produced. The strains are V674E bearing plasmids encoding λcI and αNTD fusion proteins: 1, λcI-Gal4, αNTD-Gal11^P; 2, λcI, αNTD; 3, λcI-FKBP12, αNTD; 4, λcI-FKBP12, αNTD-DHFR; 5, λcI, αNTD-DHFR. The strains were assayed in triplicate from three transformants and standard deviations are shown. The strains are grown in LB with 0.5 mM IPTG, 100 μg/mL ampicillin, 6 μg/mL chloramphenicol, and small molecules at the indicated concentration. […] The last two small-molecule concentrations are competition assays in which an excess of one of the ligands for the receptor proteins was used to compete out the positive signal due to the three-hybrid system.
The strains are V674E expressing the following λcI and αNTD fusion proteins: (♦), λcI-Gal4, αNTD-Gal11^P (a direct protein-protein interaction); (▬), λcI-FKBP12, αNTD (a negative control); and (▴), λcI-FKBP12, αNTD-DHFR (the three-hybrid system). […] The standard deviation for each data point is also shown.
For the liquid assays, the strains were incubated overnight in LB liquid media containing 100 μg/mL ampicillin, 6 μg/mL chloramphenicol, and 0.5 mM IPTG overnight. These cultures were used to innoculate 1000 fold into LB liquid media containing 100 μg/mL ampicillin, 6 μg/mL chloramphenicol, 0.5 mM IPTG, and small molecule (per concentration indicated in each experiment) and grown to a final OD600 of 0.4-0.6 in a 37° C. shaker which took about 5 hours. No tPEG is used in the liquid assays in order to get a true quantization of the transcription. Then, the protocol from Miller was followed exactly using 0.1 mL cell lysate for the assay (35).

E. coli cells = assay: toxicity to E. coli cells in three-hybrid experiments; type: cell-based; conditions: at the low concentrations of Mtx-SLF required for the three-hybrid experiments; tolC^− strain
Description: The next step was the construction of the E. coli strain expressing the λcI-FKBP12 and (NTD-DHFR fusion proteins and containing the lacZ reporter construct. Plasmids encoding the λcI-FKBP12 and αNTD-DHFR chimeras were prepared from vectors pACλcI32 and pBRαLN using standard molecular biology techniques (8). The same synthetic lacZ reporter, placOR2-62, as initially reported by the Hochschild lab was used. The reporter placOR2-62 is maintained in one copy in the chromosome as a prophage and encodes the lacZ gene 62 bp downstream from the λcI operator (FIG. 1) (16). Based on previous results from Kopytek and Hu showing that tolC^− and thyA^− mutations improved the viability and tolerance of E. coli to Mtx-based molecules, we expected export as well as toxicity of Mtx-SLF to be problematic in E. coli (32). Thus, we modified the original Hochschild strain KS1 to be tolC^− in order to decrease active export of our small molecule. […] We introduced the tolC^− mutation into KS1 via a P1vir transduction from strain SK037 (32). We call this test strain V674E. Transformation of the plasmids bearing the various λcI and αNTD fusion proteins into V674E yielded the final experimental strains.
These X-gal plate results were confirmed using more quantitative liquid β-galactosidase assays. The liquid assays were carried out essentially as originally described by Miller (35). […]

FKBP12 = FKBP12 (Homo sapiens, UniProt P62942); conditions: cited from earlier work
Sequence of FKBP12 (P62942 whole entry): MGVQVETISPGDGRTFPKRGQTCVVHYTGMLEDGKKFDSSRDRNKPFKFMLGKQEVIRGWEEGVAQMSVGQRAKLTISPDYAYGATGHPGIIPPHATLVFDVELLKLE

SMILES: O=C(N[C@H](CO)[C@H](O)c1ccc([N+](=O)[O-])cc1)C(Cl)Cl [Chloramphenicol]
- levels that significantly impair growth and viability of tolC^− strains (tolC^− strains): above 8 μg/mL

SMILES: CN(Cc1cnc2nc(N)nc(N)c2n1)c1ccc(C(=O)N[C@@H](CCC(=O)O)C(=O)O)cc1 [Mtx, methotrexate]
- effect of unlinked ligand on the levels of transcription in the three-hybrid system [1]: Neither Mtx, SLF, nor a combination of the two affects the levels of transcription
- toxicity in E. coli (need for thyA^− mutation) (E. coli cells): not sufficiently toxic

SMILES: CCC(C)(C)C(=O)C(=O)N1CCCCC1C(=O)OC(CCc1ccc(OC)c(OC)c1)c1cccc(OCC(=O)O)c1 (stereo not drawn) [SLF]
- effect of unlinked ligand on the levels of transcription in the three-hybrid system [1]: Neither Mtx, SLF, nor a combination of the two affects the levels of transcription
- affinity for FKBP12 (FKBP12): nanomolar affinity

SMILES: CCC(C)(C)C(=O)C(=O)N1CCCCC1C(=O)OC(CCc1ccc(OC)c(OC)c1)c1cccc(OCC(=O)OC(C)(C)C)c1 (stereo not drawn) [tert-butyl ester of SLF]
- levels of transcription with competitor relative to 1 μM Mtx-SLF alone ([1]; competition: 1 μM Mtx-SLF plus 10-fold excess of competitor): about half

Reference: patent US7083918B2, “Bacterial small-molecule three-hybrid system” (The Trustees of Columbia University in the City of New York, priority 2002, dated 2006)
